Source: US9840513B2 (AbbVie S.à.r.l., priority 2015, dated 2017)

What was measured:
[1] = target: T1, F508delCFTR in primary hBE cells with F508del/F508del CFTR mutation (Homo sapiens, UniProt P13569, DEL508-508); test: Transepithelial Clamp Circuit on Human Bronchial Epithelial Cells Conductance Assay (hBE-TECC); assay type: cell-based; settings: for EC50: primary hBE cells F508del/F508del, 18-24 hours at 37° C., equivalent short circuit current, 6 concentrations
T1 construct: cells isolated from CF patients with the homozygous mutation; endogenous in cells; host or cells: primary human bronchial epithelial (hBE) cells from F508del/F508del CF patients
T1 sequence (P13569 with tags, fused parts or gaps DEL508-508): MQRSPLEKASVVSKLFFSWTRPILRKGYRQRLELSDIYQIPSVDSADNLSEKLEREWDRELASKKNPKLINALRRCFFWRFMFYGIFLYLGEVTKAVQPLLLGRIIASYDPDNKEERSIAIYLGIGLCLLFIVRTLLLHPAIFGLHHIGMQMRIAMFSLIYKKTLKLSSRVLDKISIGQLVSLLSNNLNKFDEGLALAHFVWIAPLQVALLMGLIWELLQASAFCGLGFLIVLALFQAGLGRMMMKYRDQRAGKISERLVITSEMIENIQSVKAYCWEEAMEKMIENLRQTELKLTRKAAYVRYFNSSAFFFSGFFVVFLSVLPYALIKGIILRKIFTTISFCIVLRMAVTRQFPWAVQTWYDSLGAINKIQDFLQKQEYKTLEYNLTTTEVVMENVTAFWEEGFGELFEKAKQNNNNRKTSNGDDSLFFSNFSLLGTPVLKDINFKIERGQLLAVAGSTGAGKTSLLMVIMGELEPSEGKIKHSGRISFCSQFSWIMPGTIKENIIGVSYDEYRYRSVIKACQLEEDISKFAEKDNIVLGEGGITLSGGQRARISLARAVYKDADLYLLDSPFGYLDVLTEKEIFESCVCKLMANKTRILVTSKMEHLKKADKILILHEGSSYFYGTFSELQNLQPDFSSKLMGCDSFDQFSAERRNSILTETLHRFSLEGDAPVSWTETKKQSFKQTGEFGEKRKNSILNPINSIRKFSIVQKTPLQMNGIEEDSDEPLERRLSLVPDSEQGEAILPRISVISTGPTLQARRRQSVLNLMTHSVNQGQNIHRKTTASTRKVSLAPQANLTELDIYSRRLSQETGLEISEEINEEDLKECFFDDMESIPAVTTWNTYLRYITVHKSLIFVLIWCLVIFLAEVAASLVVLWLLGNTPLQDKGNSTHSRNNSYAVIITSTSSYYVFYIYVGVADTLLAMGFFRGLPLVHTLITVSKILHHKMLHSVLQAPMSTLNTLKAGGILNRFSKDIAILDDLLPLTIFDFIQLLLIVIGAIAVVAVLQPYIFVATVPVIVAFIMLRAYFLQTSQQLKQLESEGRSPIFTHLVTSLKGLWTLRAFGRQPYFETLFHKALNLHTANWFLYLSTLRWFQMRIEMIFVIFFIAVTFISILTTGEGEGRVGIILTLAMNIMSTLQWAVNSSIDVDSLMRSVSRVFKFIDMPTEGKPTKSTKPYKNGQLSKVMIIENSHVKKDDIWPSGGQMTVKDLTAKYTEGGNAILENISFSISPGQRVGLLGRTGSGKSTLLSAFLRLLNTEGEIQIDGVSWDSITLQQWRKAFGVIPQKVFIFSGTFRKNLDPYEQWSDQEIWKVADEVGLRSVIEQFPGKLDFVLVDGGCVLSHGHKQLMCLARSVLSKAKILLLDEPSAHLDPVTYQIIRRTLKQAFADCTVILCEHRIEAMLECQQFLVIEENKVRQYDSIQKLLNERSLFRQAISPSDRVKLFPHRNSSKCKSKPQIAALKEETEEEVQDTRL
Text: Transepithelial Clamp Circuit on Human Bronchial Epithelial Cells Conductance Assay:
A cell based assay using the primary human bronchial epithelial cells (hBE) was used as a secondary assay to test novel F508delCFTR correctors for their activity on primary hBE cells with F508del/F508del CFTR mutation. The assay used a TECC-24 (Transepithelial Clamp Circuit for 24 wells) instrument that measures the functionality of the mutated channel by measuring the equivalent short circuit current (Ieq) generated by the polarized epithelial cells. The instrument works by measuring the transepithelial potential difference (Vt) and transepithelial resistance (Rt) in an open circuit format, and the Ieq is calculated by using Ohms law (Ieq=Vt/Rt). The assay was run in a 24-well format and all 24-wells were measured at the same time point giving a higher throughput for this assay.
Primary human bronchial epithelial (hBE) cells from F508del/F508delCFTR patients were expanded from 1×10^6 to 250×10^6 cells (Neuberger T, Burton B, Clark H and VanGoor F; Cystic Fibrosis, Methods in Mole Biol 741; eds. Amaral M D and Kunzelmann K, 2011). For this purpose, cells isolated from CF patients with the homozygous mutation were seeded onto 24 well Corning (Cat #3378) filter plates that were coated with 3T3 conditioned media and grown at an air-liquid interface for 35 days using an Ultroser® G supplemented differentiation media. Apical surface mucus was removed 72 hours before the experiment using 3 mM dithiothreitol (DTT) in phosphate buffered saline (PBS). The apical surface was washed again 24 hours before the experiment using PBS. The cells were incubated with the desired dose response of the corrector compounds 18-24 hours at 37° C., 5% CO2. The corrector compounds are only added on the basolateral side of the epithelial cells.
On the day of measuring the corrector activity on the TECC, the cells were switched into a bicarbonate and serum free F-12 Coon's medium and allowed to equilibrate for 90 minutes in a CO2 free incubator. At the time of measurement, the apical and basolateral sides of the filter were bathed with the F-12 Coon's modification media (with 20 mM 4-(2-hydroxyethyl)-1-piperazineethanesulfonic acid (HEPES), pH 7.4 (using 1 M tris(hydroxymethyl)aminomethane (Tris)), and the measurements were made at 36.5° C. Transepithelial voltage (Vt) and transepithelial resistance (Rt) were measured using a 24 channel transepithelial current clamp (TECC-24). Current responses to the sequential addition of benzamil (apical 6 μM addition; for inhibiting epithelial ENaC channel), forskolin (apical and basolateral 10 μM addition; for activating the CFTR channel), control potentiator (N-(3-carbamoyl-5,5,7,7-tetramethyl-4,7-dihydro-5H-thieno[2,3-c]pyran-2-yl)-1H-pyrazole-5-carboxamide; apical and basolateral […] addition; for potentiating the CFTR channel) and bumetanide (basolateral 20 μM addition; for inhibiting the Na:2Cl:K co-transporter, an indirect measure of inhibiting the Cl-secretion driven by CFTR channel) were measured.
All plates contained negative controls (dimethyl sulfoxide, DMSO) which coupled with the control potentiator (N-(3-carbamoyl-5,5,7,7-tetramethyl-4,7-dihydro-5H-thieno[2,3-c]pyran-2-yl)-1H-pyrazole-5-carboxamide) sets the null response and positive controls (3 μM of 3-[(2R,4R)-4-({[1-(2,2-difluoro-1,3-benzodioxol-5-yl)cyclopropyl]carbonyl}amino)-7-methoxy-3,4-dihydro-2H-chromen-2-yl]benzoic acid) coupled with the control potentiator sets the 100% response to measure the correction of the mutated CFTR channel. The maximum percent activity is reported relative to the positive control value.
The % activity measured at each of the 6 test concentrations of the test compound was normalized to the on-plate positive control using the following formula: % activity=[[…]]*100 […]

[2] = target: T2, F508delCFTR cell surface expression in CFBE41o-F508delCFTR-HRP cells (Homo sapiens, UniProt P13569, DEL508-508); test: Cell Surface Expression-Horse Radish Peroxidase (CSE-HRP) Assay; assay type: cell-based; settings: for EC50: CFBE41o-F508delCFTR-HRP cells, 18-24 hours at 33° C., 8-point curve, highest concentration 20 μM; for Maximum % activity (%): maximum at any tested concentration, normalized to on-plate positive control (3 μM)
T2 construct: fused on or other part: Horseradish peroxidase (HRP) reporter inserted in the fourth exofacial (extracellular) loop of CFTR; expression is doxycycline-inducible
T2 sequence (P13569 with tags, fused parts or gaps DEL508-508 limits assumed): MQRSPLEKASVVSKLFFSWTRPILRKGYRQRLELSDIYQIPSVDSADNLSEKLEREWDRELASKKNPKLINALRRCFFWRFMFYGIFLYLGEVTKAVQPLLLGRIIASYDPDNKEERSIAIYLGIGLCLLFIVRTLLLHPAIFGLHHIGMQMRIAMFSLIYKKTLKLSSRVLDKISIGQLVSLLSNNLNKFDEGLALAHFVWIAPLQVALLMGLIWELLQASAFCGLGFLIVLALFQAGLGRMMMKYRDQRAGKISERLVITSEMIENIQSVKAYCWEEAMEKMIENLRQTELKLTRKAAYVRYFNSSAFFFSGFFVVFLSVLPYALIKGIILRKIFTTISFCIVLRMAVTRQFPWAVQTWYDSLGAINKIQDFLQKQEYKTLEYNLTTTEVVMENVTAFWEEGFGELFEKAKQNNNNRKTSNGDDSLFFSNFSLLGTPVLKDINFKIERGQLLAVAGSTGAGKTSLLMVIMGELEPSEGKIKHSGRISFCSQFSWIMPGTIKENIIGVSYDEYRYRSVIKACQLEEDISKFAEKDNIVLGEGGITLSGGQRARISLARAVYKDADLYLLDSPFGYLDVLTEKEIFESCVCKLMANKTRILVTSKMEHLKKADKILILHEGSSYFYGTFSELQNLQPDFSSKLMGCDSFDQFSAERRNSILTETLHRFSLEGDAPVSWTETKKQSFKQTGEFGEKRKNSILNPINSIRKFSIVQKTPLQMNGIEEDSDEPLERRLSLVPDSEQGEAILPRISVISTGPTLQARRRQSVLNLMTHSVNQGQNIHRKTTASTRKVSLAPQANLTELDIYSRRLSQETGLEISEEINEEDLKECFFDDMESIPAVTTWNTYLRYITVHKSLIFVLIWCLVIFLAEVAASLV
T2 sequence (P13569 919-1480 limits assumed, stated change not applied): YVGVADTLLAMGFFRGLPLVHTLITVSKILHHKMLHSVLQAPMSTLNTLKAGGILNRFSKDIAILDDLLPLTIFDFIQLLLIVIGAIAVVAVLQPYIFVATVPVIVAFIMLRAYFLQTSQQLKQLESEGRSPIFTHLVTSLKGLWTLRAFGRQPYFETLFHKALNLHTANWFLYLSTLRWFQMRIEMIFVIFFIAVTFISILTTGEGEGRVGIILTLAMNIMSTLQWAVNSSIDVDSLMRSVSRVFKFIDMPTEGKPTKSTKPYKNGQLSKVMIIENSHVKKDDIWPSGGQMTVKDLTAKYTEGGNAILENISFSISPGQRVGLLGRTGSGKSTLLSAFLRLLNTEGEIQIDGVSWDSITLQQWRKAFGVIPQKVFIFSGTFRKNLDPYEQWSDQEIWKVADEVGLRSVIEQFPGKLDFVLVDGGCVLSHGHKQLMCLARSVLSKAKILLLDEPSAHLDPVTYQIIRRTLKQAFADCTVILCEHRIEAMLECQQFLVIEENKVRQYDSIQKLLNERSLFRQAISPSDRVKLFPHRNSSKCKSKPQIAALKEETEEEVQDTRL
Procedure, shortened: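 Correctors incubated 18-24 h at 33 °C on doxycycline-induced (0.5 μg/mL, 72 h) CFBE41o-F508delCFTR-HRP cells, 3-fold series from 20 μM. After DPBS washes, luminol luminescence read; activity expressed relative to DMSO and a 3 μM positive control, EC50 fitted from triplicate plates.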

[3] = relative to positive control (3 μM) coupled with control potentiator

| SMILES | EC50 [1] | Maximum % activity (%) [1, 3] | EC50 [2] | Maximum % activity (%) [2] | Maximum % activity (%) ([1]; testing concentration 10 μM) | Maximum % activity (%) ([1]; testing concentration 3 μM) | Maximum % activity (%) ([1]; testing concentration 1 μM) |
| --- | --- | --- | --- | --- | --- | --- | --- |
| CC1(C(=O)N[C@@H]2C[C@H](c3cccc(C(=O)O)c3)Oc3ccccc32)COc2cc3c(cc21)OC(F)(F)O3 (stereo partly drawn) [Example 21, 3-{(2R,4R)-4-[(2,2-difluoro-7-methyl-6,7-dihydro-2H-furo[2,3-f][1,3]benzodioxole-7-carbonyl)amino]-3,4-dihydro-2H-1-benzopyran-2-yl}benzoic acid] | 468 nM | 94% | 1260 nM | 162% |  |  |  |
| CC1(C(=O)Nc2cc(-c3ccccc3)nn(C[C@@H](O)CO)c2=O)COc2cc3c(cc21)OC(F)(F)O3 (stereo partly drawn) [Example 25, N-{2-[(2R)-2,3-dihydroxypropyl]-3-oxo-6-phenyl-2,3-dihydropyridazin-4-yl}-2,2-difluoro-7-methyl-6,7-dihydro-2H-furo[2,3-f][1,3]benzodioxole-7-carboxamide] |  |  | 1160 nM | 82% | 61% |  |  |
| CC1(C(=O)Nc2cc(C3CC3)nn(-c3ccc(C(=O)O)cc3)c2=O)COc2cc3c(cc21)OC(F)(F)O3 (stereo not shown) [Example 30, 4-{3-cyclopropyl-5-[(2,2-difluoro-7-methyl-6,7-dihydro-2H-furo[2,3-f][1,3]benzodioxole-7-carbonyl)amino]-6-oxopyridazin-1(614)-yl}benzoic acid] |  |  | 980 nM | 122% | 47% |  |  |
| C[C@]1(C(=O)Nc2cc(C3CC3)nn(-c3ccc(C(=O)O)cc3)c2=O)COc2cc3c(cc21)OC(F)(F)O3 [Example 32, 4-[3-cyclopropyl-5-{[(7R)-2,2-difluoro-7-methyl-6,7-dihydro-2H-furo[2,3-f][1,3]benzodioxole-7-carbonyl]amino}-6-oxopyridazin-1(6H)-yl]benzoic acid] |  |  | 880 nM | 144% |  | 51% |  |
| CC1(C(=O)N[C@@H]2C[C@H](c3cccc(C(=O)O)c3)Oc3ccccc32)CCc2cc3c(cc21)OC(F)(F)O3 (stereo partly drawn) [Example 35, 3-{(2R,4R)-4-[(2,2-difluoro-5-methyl-6,7-dihydro-2H,5H-indeno[5,6-d][1,3]dioxole-5-carbonyl)amino]-3,4-dihydro-2H-1-benzopyran-2-yl}benzoic acid] |  |  | 940 nM | 76% |  | 80% |  |
| Cc1ccc(NC(=O)C2(C)CCc3c2ccc2c3OCO2)cc1-c1cccc(C(=O)O)c1 (stereo not shown) [Example 36, 2′-methyl-5′-[(6-methyl-7,8-dihydro-2H,6H-indeno[4,5-d][1,3]dioxole-6-carbonyl)amino][1,1′-biphenyl]-3-carboxylic acid] |  |  | 1240 nM | 79% | 77% |  |  |
| COc1ccc2c(c1)O[C@@H](c1ccc(C(=O)O)cc1)C[C@H]2NC(=O)C1(C)COc2c1ccc1c2OC(F)(F)O1 (stereo partly drawn) [Example 39, 4-{(2R,4R)-4-[(2,2-difluoro-6-methyl-6,7-dihydro-2H-furo[2,3-e][1,3]benzodioxole-6-carbonyl)amino]-7-methoxy-3,4-dihydro-2H-1-benzopyran-2-yl}benzoic acid] |  |  | 1260 nM | 106% |  | 47% |  |

These reach a lower EC50 [2]. Values come first.

| EC50 [1] | Maximum % activity (%) [1, 3] | EC50 [2] | Maximum % activity (%) [2] | Maximum % activity (%) ([1]; testing concentration 10 μM) | Maximum % activity (%) ([1]; testing concentration 3 μM) | Maximum % activity (%) ([1]; testing concentration 1 μM) | SMILES |
| --- | --- | --- | --- | --- | --- | --- | --- |
| 11 nM | 98% | 30 nM | 150% |  |  |  | COc1ccc2c(c1)O[C@@H](c1ccc(C(=O)O)cc1)C[C@H]2NC(=O)[C@@]1(C)COc2cc3c(cc21)OC(F)(F)O3 [Example 20, 4-[(2R,4R)-4-{[(7R)-2,2-difluoro-7-methyl-6,7-dihydro-2H-furo[2,3-f][1,3]benzodioxole-7-carbonyl]amino}-7-methoxy-3,4-dihydro-2H-1-benzopyran-2-yl]benzoic acid] |
|  |  | 810 nM | 82% |  | 54% |  | C[C@]1(C(=O)Nc2cc(-c3ccccc3)nn(C[C@@H](O)CO)c2=O)COc2cc3c(cc21)OC(F)(F)O3 [Example 27, (7R)—N-{2-[(2R)-2,3-dihydroxypropyl]-3-oxo-6-phenyl-2,3-dihydropyridazin-4-yl}-2,2-difluoro-7-methyl-6,7-dihydro-2H-furo[2,3-f][1,3]benzodioxole-7-carboxamide] |
| 220 nM | 105% | 430 nM | 142% |  |  |  | COc1ccc2c(c1)O[C@@H](c1ccc(C(=O)O)cc1)C[C@H]2NC(=O)[C@]1(C)CCc2c1ccc1c2OCO1 [Example 46, 4-[(2R,4R)-7-methoxy-4-{[(6R)-6-methyl-7,8-dihydro-2H,6H-indeno[4,5-d][1,3]dioxole-6-carbonyl]amino}-3,4-dihydro-2H-1-benzopyran-2-yl]benzoic acid] |
|  |  | 240 nM | 172% | 100% |  |  | Cc1ccc(NC(=O)[C@@]2(C)COc3cc4c(cc32)OC(F)(F)O4)nc1-c1ccc(C(=O)O)cc1 [Example 83, 4-(6-{[(7R)-2,2-difluoro-7-methyl-6,7-dihydro-2H-furo[2,3-f][1,3]benzodioxole-7-carbonyl]amino}-3-methylpyridin-2-yl)benzoic acid] |
|  |  | 10 nM | 112% |  |  | 84% | COc1ccc2c(c1)O[C@@H](c1ccc(C(=O)O)cn1)C[C@H]2NC(=O)[C@@]1(C)COc2cc3c(cc21)OC(F)(F)O3 [Example 89, 6-[(2R,4R)-4-{[(7R)-2,2-difluoro-7-methyl-6,7-dihydro-2H-furo[2,3-f][1,3]benzodioxole-7-carbonyl]amino}-7-methoxy-3,4-dihydro-2H-1-benzopyran-2-yl]pyridine-3-carboxylic acid] |
|  |  | 620 nM | 127% |  |  | 65% | C[C@]1(C(=O)Nc2cccc(N3CC[C@H](C(=O)O)C3)n2)COc2cc3c(cc21)OC(F)(F)O3 [Example 90, (3S)-1-(6-{[(7R)-2,2-difluoro-7-methyl-6,7-dihydro-2H-furo[2,3-f][1,3]benzodioxole-7-carbonyl]amino}pyridin-2-yl)pyrrolidine-3-carboxylic acid] |
|  |  | 590 nM | 167% |  |  | 50% | C[C@]1(C(=O)Nc2ccc(Cl)c(-c3cccc(C(=O)O)c3)n2)COc2cc3c(cc21)OC(F)(F)O3 [Example 95, 3-(3-chloro-6-{[(7R)-2,2-difluoro-7-methyl-6,7-dihydro-2H-furo[2,3-f][1,3]benzodioxole-7-carbonyl]amino}pyridin-2-yl)benzoic acid] |
| 67 nM | 72% | 390 nM | 105% |  |  |  | CC(C)(CO)c1cc2cc(NC(=O)[C@@]3(C)COc4cc5c(cc43)OC(F)(F)O5)c(F)cc2n1C[C@@H](O)CO [Example 130, (7R)—N-{1-[(2R)-2,3-dihydroxypropyl]-6-fluoro-2-(1-hydroxy-2-methylpropan-2-yl)-1H-indol-5-yl}-2,2-difluoro-7-methyl-6,7-dihydro-2H-furo[2,3-f][1,3]benzodioxole-7-carboxamide] |
